Experimental data from PubChem BioAssay (NCI).
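Interpolation was linear, between the two tested concentrations surrounding the appropriate level; five concentrations were tested over 48 hours in 96-well plates. GI50 marks 50% less growth. At the TGI there is no net growth.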

Assays:
Assay in all cases: NCI anticancer screen, dose series, 48 h
NCI-H23 lung = system: NCI-H23 lung
MOLT-4 leukemia = system: MOLT-4 leukemia
MALME-3M melanoma = system: MALME-3M melanoma
IGROV1 ovarian = system: IGROV1 ovarian
786-0 renal = system: 786-0 renal
TK-10 renal = system: TK-10 renal
SK-MEL-2 melanoma = system: SK-MEL-2 melanoma
RXF 393 renal = system: RXF 393 renal
K-562 leukemia = system: K-562 leukemia
SN12C renal = system: SN12C renal

Row | SMILES | GI50 (NCI-H23 lung) | TGI (NCI-H23 lung) | GI50 (MOLT-4 leukemia) | TGI (MOLT-4 leukemia) | GI50 (MALME-3M melanoma) | TGI (MALME-3M melanoma) | GI50 (IGROV1 ovarian) | TGI (IGROV1 ovarian) | GI50 (786-0 renal) | TGI (786-0 renal) | GI50 (TK-10 renal) | TGI (TK-10 renal) | GI50 (SK-MEL-2 melanoma) | TGI (SK-MEL-2 melanoma) | GI50 (RXF 393 renal) | TGI (RXF 393 renal) | GI50 (K-562 leukemia) | TGI (K-562 leukemia) | GI50 (SN12C renal) | TGI (SN12C renal)
1 | COc1cc2cc(Oc3ccc(NC(=O)c4ccc(Cl)c(C(F)(F)F)c4)cc3)c(C)nc2cc1OC | 9.73 µM | > 100 µM | 9.7 µM | 70.5 µM | 28.6 µM | 95.1 µM | 35.5 µM | > 100 µM | 12.1 µM | > 100 µM | 12.4 µM | > 100 µM | 18.3 µM | 51.1 µM | 9.04 µM | > 100 µM | 9.14 µM | > 100 µM | 13.2 µM | > 100 µM
2 | Cc1ncc([N+](=O)[O-])n1CCNC(=O)CCCn1cnc([N+](=O)[O-])n1 | – | > 100 µM | – | > 100 µM | – | > 100 µM | – | > 100 µM | – | > 100 µM | – | > 69.5 µM | – | > 100 µM | – | > 100 µM | – | > 100 µM | – | > 55.9 µM
3 | COc1ccccc1-c1c(C)nn2c(NCc3ccccn3)cc(C)nc12 | 48.7 µM | > 50 µM | 7.68 µM | > 50 µM | > 17.1 µM | > 50 µM | > 37.5 µM | > 50 µM | 36.4 µM | > 50 µM | > 25.6 µM | > 50 µM | > 50 µM | > 50 µM | 33.5 µM | > 50 µM | 5.85 µM | > 50 µM | 29.9 µM | > 50 µM
4 | Cn1cc(-c2ccc3c(c2)CCN3C(=O)Cc2cccc(C(F)(F)F)c2)c2c(N)ncnc21 | 4.43 µM | 24.2 µM | 3.55 µM | 18.6 µM | 2.03 µM | 13.3 µM | 3.47 µM | 30.5 µM | 2.26 µM | 17.7 µM | 6.09 µM | 39 µM | 4.62 µM | 28.6 µM | 3.46 µM | 19.5 µM | 2.22 µM | 20.6 µM | 2.48 µM | 19.6 µM
5 | COC(=O)C(=O)C(C(=O)C=C(C)C)C(=O)C(=O)Nc1cccc(C(C)=O)c1 (configuration not stated) | – | > 100 µM | – | > 100 µM | – | > 100 µM | – | > 100 µM | – | > 100 µM | – | > 100 µM | – | > 100 µM | – | > 100 µM | – | > 100 µM | – | > 100 µM
6 | COc1cc(/C=C(/c2ccccc2)[N+](=O)[O-])c(OC)c2c1OCO2 | 1.73 µM | 3.41 µM | 1.86 µM | 6.41 µM | 1.53 µM | 3.21 µM | 1.16 µM | 2.6 µM | 1.62 µM | 3.05 µM | 2.05 µM | 3.81 µM | 1.85 µM | 4 µM | 1.49 µM | 2.85 µM | 0.373 µM | 13.7 µM | 1.56 µM | 3.79 µM
7 | CCN1C(=O)N(CC)C2C1NN=c1s/c(=C3\C(=O)N(C)c4ccccc43)c(=O)n12 (configuration not stated) | 3.24 µM | > 88.1 µM | 1.7 µM | > 100 µM | 0.993 µM | > 100 µM | 0.891 µM | 43.7 µM | 1.94 µM | > 100 µM | 11.2 µM | > 74.3 µM | 3.06 µM | > 100 µM | 0.587 µM | 4.81 µM | 0.352 µM | > 100 µM | 2.89 µM | > 100 µM
8 | CCCCCCCCCCCCC(=O)[O-].CCCCCCCCCCCCC(=O)[O-].CCCCCCCCCCCCC(=O)[O-].CCCCCCCCCCCCC(=O)[O-].[Mo+2].[Mo+2] | 17.9 µM | 40.6 µM | 3.57 µM | 22.5 µM | 11.4 µM | 28 µM | 15.5 µM | 40.2 µM | 3.68 µM | 16 µM | 32.6 µM | 94.6 µM | 12.2 µM | 28 µM | 12 µM | 26.1 µM | 10.9 µM | 79.8 µM | – | –
9 | COc1ccc2c(C(=O)O)cc3cc(OC)c(OC)cc3c2c1 | – | > 100 µM | – | > 100 µM | – | > 100 µM | – | > 100 µM | – | > 100 µM | – | > 100 µM | – | > 100 µM | – | > 100 µM | – | > 100 µM | – | > 100 µM
10 | CC(=O)OC1C2(CC3N4C(=O)C5(CO)SSC4(CC31O)C(=O)N5C)OC(C)C(C)(C)C2=O (configuration not stated) | < 0.0371 µM | 0.0932 µM | < 0.0179 µM | 0.0622 µM | 0.154 µM | – | 0.117 µM | 0.577 µM | 0.234 µM | 0.528 µM | 1.73 µM | 3.27 µM | 0.339 µM | 1.79 µM | 0.0473 µM | 0.151 µM | < 0.0288 µM | 1.91 µM | < 0.0114 µM | 0.05 µM
11 | C=C[C@]1(C)C=C2C(=O)[C@@]3(O)OC[C@@]4(CCCC(C)(C)C43O)C2(O)C(O)C1 (some centres not stated) | 2.71 µM | 8.51 µM | 3.09 µM | 15.2 µM | 1.36 µM | 3.02 µM | 1.55 µM | 6.36 µM | 2.21 µM | 5.51 µM | 1.56 µM | 3.03 µM | 12.4 µM | 27.4 µM | 1.62 µM | 3.48 µM | 2.8 µM | > 27.9 µM | 8.4 µM | 23.2 µM
12 | CCO[C@@H]1C2C=CC(C2)[C@H]1[N+](=O)[O-] (some centres not stated) | – | > 100 µM | – | > 100 µM | – | > 100 µM | – | > 100 µM | – | > 100 µM | – | > 100 µM | – | > 100 µM | – | > 100 µM | – | > 100 µM | – | > 100 µM
13 | COC(=O)C(Cc1nc2ccc(Cl)cc2[nH]c1=O)C(=O)C(=O)Nc1ccccc1[N+](=O)[O-] (configuration not stated) | – | > 100 µM | – | > 100 µM | – | > 100 µM | – | > 100 µM | – | > 100 µM | – | > 100 µM | – | > 100 µM | – | > 100 µM | – | > 100 µM | – | > 100 µM
14 | Cc1ccc2c(c1)ncn2-c1ncnc2c1CC(C)c1ccccc1N2C (configuration not stated) | 0.428 µM | 19.4 µM | 0.0607 µM | 4.36 µM | 0.0513 µM | 4.6 µM | 0.256 µM | 7.68 µM | 0.487 µM | 14.7 µM | 11.6 µM | 24.3 µM | 1.13 µM | 18.3 µM | 0.0577 µM | 16.4 µM | 0.0399 µM | 11.2 µM | 0.444 µM | 15.6 µM
